Test results from patent publication US7488740B2, “Substituted quinolin-4-ylamine analogues” (Neurogen Corporation, priority 2003, dated 2009).

Molecular target: T1, human capsaicin receptor (Homo sapiens, UniProt Q8NER1)
T1 construct: A cDNA encoding full length human capsaicin receptor recited in U.S. Pat. No. 6,482,611 was subcloned in the plasmid pBK-CMV; expressed in transfected cells
Test: Calcium mobilization assay (Example 6)
Type: cell-based
Details: concentration required to provide a 50% decrease in the fluorescence response of cells exposed to one IC50 of capsaicin
Protocol: Human embryonic kidney (HEK293) cells were transfected with the pBK-CMV expression construct encoding the full length human capsaicin receptor using standard methods. The transfected cells were selected for two weeks in media containing G418 (400 μg/ml) to obtain a pool of stably transfected cells. Independent clones were isolated from this pool by limiting dilution to obtain clonal stable cell lines for use in subsequent experiments.
Cells transfected with expression plasmids (as described in Example 4) and thereby expressing human capsaicin receptor are seeded and grown to 70-90% confluency in FALCON black-walled, clear-bottomed 96-well plates (#3904, BECTON-DICKINSON, Franklin Lakes, N.J.). The culture medium is emptied from the 96 well plates and FLUO-3 AM calcium sensitive dye (Molecular Probes, Eugene, Oreg.) is added to each well (dye solution: 1 mg FLUO-3 AM, 440 μL DMSO and 440 μl 20% pluronic acid in DMSO, diluted 1:250 in Krebs-Ringer HEPES (KRH) buffer (25 mM HEPES, 5 mM KCl, 0.96 mM NaH2PO4, 1 mM MgSO4, 2 mM CaCl2, 5 mM glucose, 1 mM probenecid, pH 7.4), 50 μl diluted solution per well). Plates are covered with aluminum foil and incubated at 37° C. for 1-2 hours in an environment containing 5% CO2. After the incubation, the dye is emptied from the plates, and the cells are washed once with KRH buffer, and, resuspended in KRH buffer.
Agonist (e.g., olvanil, capsaicin, or RTX)-induced calcium mobilization is monitored using either FLUOROSKAN ASCENT (Labsystems, Franklin, Mass.) or FLIPR (fluorometric imaging plate reader system, Molecular Devices, Sunnyvale, Calif.) instruments. Varying concentrations of the antagonists ruthenium red or capsazepine (RBI; Natick, Mass.) are added to cells concurrently with agonist (e.g., 25-50 nM capsaicin). For agonist-induced calcium responses, data obtained between 30 and 60 seconds after agonist application are used to generate the IC50 values. KALEIDAGRAPH software (Synergy Software, Reading, Pa.) is used to fit the data to the equation: y=a*(1/(1+(b/x)^c)) to determine the IC50 for the response. In this equation, y is the maximum fluorescence signal, x is the concentration of the agonist or antagonist, a is the Emax, b corresponds to the IC50 value and c is the Hill coefficient.
To measure the ability of a test compound to antagonize (inhibit) the response of cells expressing capsaicin receptors to capsaicin or other vanilloid agonist, the IC50 of capsaicin is first determined. An additional 20 μl of KRH buffer and 1 μl DMSO is added to each well of cells, prepared as described above. 100 μl capsaicin in KRH buffer is automatically transferred by the FLIPR instrument to each well. An 8-point concentration response curve, with final capsaicin concentrations of 1 nM to 3 μM, is used to determine capsaicin IC50.
Test compounds are dissolved in DMSO, diluted in 20 μl KRH buffer so that the final concentration of test compounds in the assay well is between 1 μM and 5 μM, and added to cells prepared as described above. The 96 well plates containing prepared cells and test compounds are incubated in the dark, at room temperature for 0.5 to 6 hours. It is important that the incubation not continue beyond 6 hours. Just prior to determining the fluorescence response, 100 μl capsaicin in KRH buffer at twice the IC50 concentration determined from the concentration response curve is automatically added by the FLIPR instrument to each well of the 96 well plate for a final sample volume of 200 μl and a final capsaicin concentration equal to the IC50. The final concentration of test compounds in the assay wells is between 1 μM and 5 μM. […] Antagonists of the capsaicin receptor decrease this response by at least about 20%, preferably by at least about 50%, and most preferably by at least 80% as compared to matched control. The concentration of antagonist required to provide a 50% decrease is the IC50 for the antagonist, and is preferably below 1 micromolar, 100 nanomolar, 10 nanomolar or 1 nanomolar. […]

T1 sequence (Q8NER1 whole entry): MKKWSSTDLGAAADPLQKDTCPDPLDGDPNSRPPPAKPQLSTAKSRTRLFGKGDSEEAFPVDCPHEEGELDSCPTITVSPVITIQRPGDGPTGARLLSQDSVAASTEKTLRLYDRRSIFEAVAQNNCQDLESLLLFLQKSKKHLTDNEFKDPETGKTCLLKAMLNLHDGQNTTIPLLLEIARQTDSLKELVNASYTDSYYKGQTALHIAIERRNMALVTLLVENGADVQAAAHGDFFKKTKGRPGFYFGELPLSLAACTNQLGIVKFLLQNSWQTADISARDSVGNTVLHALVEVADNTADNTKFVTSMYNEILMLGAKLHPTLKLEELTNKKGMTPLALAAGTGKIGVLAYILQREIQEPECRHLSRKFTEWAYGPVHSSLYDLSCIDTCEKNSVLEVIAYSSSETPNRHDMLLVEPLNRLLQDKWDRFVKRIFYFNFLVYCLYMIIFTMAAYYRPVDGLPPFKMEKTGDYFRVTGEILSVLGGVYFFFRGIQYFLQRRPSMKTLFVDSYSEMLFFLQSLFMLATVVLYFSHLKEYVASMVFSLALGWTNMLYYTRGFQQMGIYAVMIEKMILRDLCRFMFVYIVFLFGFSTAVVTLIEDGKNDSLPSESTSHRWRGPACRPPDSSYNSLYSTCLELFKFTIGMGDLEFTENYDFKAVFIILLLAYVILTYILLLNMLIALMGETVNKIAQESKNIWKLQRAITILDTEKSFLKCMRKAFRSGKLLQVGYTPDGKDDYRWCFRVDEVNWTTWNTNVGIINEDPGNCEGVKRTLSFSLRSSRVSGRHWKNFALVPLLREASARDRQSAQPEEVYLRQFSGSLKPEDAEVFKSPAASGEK

SMILES | IC50 [µM]
CCCS(=O)(=O)c1ccc(Nc2cc(COCC(C)C)nc3nc(-c4ncccc4C(F)(F)F)ccc23)cc1 [Compound 73, 2-(isobutoxymethyl)-N-[4-(propylsulfonyl)phenyl]-7-[3-(trifluoromethyl)pyridin-2-yl]-1,8-naphthyridin-4-amine] | ≤ 1
CC(C)COCc1cc(Nc2ccc(C(C)(C)O)cc2)c2ccc(-c3ncccc3Cl)nc2n1 [Compound 64, 2-(4-{[7-(3-chloropyridin-2-yl)-2-(isobutoxymethyl)-1,8-naphthyridin-4-yl]amino}phenyl)propan-2-ol] | ≤ 1
CC(C)COCc1cc(Nc2ccc(C(F)(F)F)cc2)c2ccc(-c3ncccc3Cl)nc2n1 [Compound 52, 7-(3-chloropyridin-2-yl)-2-(isobutoxymethyl)-N-[4-(trifluoromethyl)phenyl]-1,8-naphthyridin-4-amine] | ≤ 1
CC(=O)c1ccc(Nc2cc(COCC(C)C)nc3nc(-c4ncccc4C(F)(F)F)ccc23)cc1 [Compound 56, 1-[4-({2-(isobutoxymethyl)-7-[3-(trifluoromethyl)pyridin-2-yl]-1,8-naphthyridin-4-yl}amino)phenyl]ethanone] | ≤ 1
CC(C)C(=O)N(C)Cc1cc(Nc2ccc(C(F)(F)F)cc2)c2ccc(-c3ncccc3C(F)(F)F)nc2n1 [Compound 75, N,2-dimethyl-N-({4-{[4-(trifluoromethyl)phenyl]amino}-7-[3-(trifluoromethyl)pyridin-2-yl]-1,8-naphthyridin-2-yl}methyl)propanamide] | ≤ 1
CC(C)CCOCc1cc(Nc2ccc(C(F)(F)F)cc2)c2ccc(-c3ncccc3C(F)(F)F)nc2n1 [Compound 42, 2-[(isopentyloxy)methyl]-N-[4-(trifluoromethyl)phenyl]-7-[3-(trifluoromethyl)pyridin-2-yl]-1,8-naphthyridin-4-amine] | ≤ 1
FC(F)(F)c1cnc(Nc2ccnc3nc(-c4ncccc4C(F)(F)F)ccc23)nc1 [Compound 132, 7-[3-(trifluoromethyl)pyridin-2-yl]-N-[5-(trifluoromethyl)pyrimidin-2-yl]-1,8-naphthyridin-4-amine] | ≤ 1
N#Cc1cc(Nc2ccc(C(F)(F)F)cn2)c2ccc(-c3ncccc3C(F)(F)F)nc2n1 [Compound 125, 7-[3-(trifluoromethyl)pyridin-2-yl]-4-{[5-(trifluoromethyl)pyridin-2-yl]amino}-1,8-naphthyridine-2-carbonitrile] | ≤ 1
COc1cc(Nc2ccc(C(F)(F)F)cn2)c2ccc(-c3ncccc3C(F)(F)F)nc2n1 [Compound 96, 2-methoxy-7-[3-(trifluoromethyl)pyridin-2-yl]-N-[5-(trifluoromethyl)pyridin-2-yl]-1,8-naphthyridin-4-amine] | ≤ 1
COCc1cc(Nc2ccc(C(C)(C)O)cc2)c2ccc(-c3ncccc3Cl)nc2n1 [Compound 53, 2-(4-{[7-(3-chloropyridin-2-yl)-2-(methoxymethyl)-1,8-naphthyridin-4-yl]amino}phenyl)propan-2-ol] | ≤ 1
CC(C)(C)c1ccc(Nc2cc(Cl)nc3cc(-c4ncccc4C(F)(F)F)ccc23)cc1 [Compound 22, N-(4-tert-butylphenyl)-2-chloro-7-[3-(trifluoromethyl)pyridin-2-yl]quinolin-4-amine] | ≤ 1
CCc1cc(Nc2ccc(C(C)(C)O)cn2)c2ccc(-c3ncccc3C(F)(F)F)nc2n1 [Compound 112, 2-[6-({2-ethyl-7-[3-(trifluoromethyl)pyridin-2-yl]-1,8-naphthyridin-4-yl}amino)pyridin-3-yl]propan-2-ol] | ≤ 1
COCc1cc(Nc2ccc(S(=O)(=O)C(C)C)cc2)c2ccc(-c3ncccc3C(F)(F)F)nc2n1 [Compound 13, N-[4-(isopropylsulfonyl)phenyl]-2-(methoxymethyl)-7-[3-(trifluoromethyl)pyridin-2-yl]-1,8-naphthyridin-4-amine] | ≤ 1
Oc1cc(Nc2ccc(C(F)(F)F)cc2)c2ccc(-c3ncccc3C(F)(F)F)nc2n1 [Compound 31, 4-{[4-(trifluoromethyl)phenyl]amino}-7-[3-(trifluoromethyl)pyridin-2-yl]-1,8-naphthyridin-2-ol] | ≤ 1

Second part, the molecule after the results:

IC50 [µM] | SMILES
≤ 1 | FC(F)(F)c1ccc(Nc2cc(Cl)nc3cc(-c4ncccc4C(F)(F)F)ccc23)cc1 [Compound 20, 2-chloro-N-[4-(trifluoromethyl)phenyl]-7-[3-(trifluoromethyl)pyridin-2-yl]quinolin-4-amine]
≤ 1 | FC(F)(F)c1cnc(Nc2ccnc3nc(-c4ncccc4Cl)ccc23)nc1 [Compound 145, 7-(3-chloropyridin-2-yl)-N-[5-(trifluoromethyl)pyrimidin-2-yl]-1,8-naphthyridin-4-amine]
≤ 1 | CC(O)COCc1cc(Nc2ccc(C(F)(F)F)cc2)c2ccc(-c3ncccc3C(F)(F)F)nc2n1 (centres unmarked) [Compound 66, 1-({4-{[4-(trifluoromethyl)phenyl]amino}-7-[3-(trifluoromethyl)pyridin-2-yl]-1,8-naphthyridin-2-yl}methoxy)propan-2-ol]
≤ 1 | CCOc1cc(Nc2ccc(C(F)(F)F)cn2)c2ccc(-c3ncccc3C(F)(F)F)nc2n1 [Compound 45, 2-ethoxy-7-[3-(trifluoromethyl)pyridin-2-yl]-N-[5-(trifluoromethyl)pyridin-2-yl]-1,8-naphthyridin-4-amine]
≤ 1 | CCOc1cc(Nc2ccc(C(F)(F)F)cc2)c2ccc(-c3ncccc3C(F)(F)F)nc2n1 [Compound 36, 2-ethoxy-N-[4-(trifluoromethyl)phenyl]-7-[3-(trifluoromethyl)pyridin-2-yl]-1,8-naphthyridin-4-amine]
≤ 1 | COCc1cc(Nc2ccc(C#N)cc2)c2ccc(-c3ncccc3C(F)(F)F)nc2n1 [Compound 11, 4-({2-(methoxymethyl)-7-[3-(trifluoromethyl)pyridin-2-yl]-1,8-naphthyridin-4-yl}amino)benzonitrile]
≤ 1 | FC(F)(F)c1ccc(Nc2ccnc3cc(-c4ncccc4C(F)(F)F)cnc23)nc1 [Compound 108, 7-[3-(trifluoromethyl)pyridin-2-yl]-N-[5-(trifluoromethyl)pyridin-2-yl]-1,5-naphthyridin-4-amine]
≤ 1 | COCc1cc(Nc2ccc(C(C)(C)C)cc2)c2ccc(-c3ncccc3C(F)(F)F)nc2n1 [Compound 3]
≤ 1 | COC(C)c1cc(Nc2ccc(C(F)(F)F)cn2)c2ccc(-c3ncccc3C(F)(F)F)nc2n1 (centres unmarked) [Compound 119, 2-(1-methoxyethyl)-7-[3-(trifluoromethyl)pyridin-2-yl]-N-[5-(trifluoromethyl)pyridin-2-yl]-1,8-naphthyridin-4-amine]
≤ 1 | CCCOc1cc(Nc2ccc(C(C)(C)C)cc2)c2ccc(-c3ncccc3C(F)(F)F)cc2n1 [Compound 33, N-(4-tert-butylphenyl)-2-propoxy-7-[3-(trifluoromethyl)pyridin-2-yl]quinolin-4-amine]
≤ 1 | COCc1cc(Nc2ccc(F)cc2)c2ccc(-c3ncccc3C(F)(F)F)nc2n1 [Compound 9, N-(4-fluorophenyl)-2-(methoxymethyl)-7-[3-(trifluoromethyl)pyridin-2-yl]-1,8-naphthyridin-4-amine]
≤ 1 | CCOc1cc(Nc2ccc(S(=O)(=O)C(F)(F)F)cc2)c2ccc(-c3ncccc3C(F)(F)F)nc2n1 [Compound 46, 2-ethoxy-7-[3-(trifluoromethyl)pyridin-2-yl]-N-{4-[(trifluoromethyl)sulfonyl]phenyl}-1,8-naphthyridin-4-amine]
